Reference: patent publication US20250171437A1 (Agios Pharmaceuticals,Inc., priority 2022, published 2025)

Molecular target: T1, human PAH with the R408W mutation (A375 R408W cells) (Homo sapiens, UniProt P00439, R408W)
T1 construct: expressed in transfected cells
T1 sequence (P00439 1-452 R408W): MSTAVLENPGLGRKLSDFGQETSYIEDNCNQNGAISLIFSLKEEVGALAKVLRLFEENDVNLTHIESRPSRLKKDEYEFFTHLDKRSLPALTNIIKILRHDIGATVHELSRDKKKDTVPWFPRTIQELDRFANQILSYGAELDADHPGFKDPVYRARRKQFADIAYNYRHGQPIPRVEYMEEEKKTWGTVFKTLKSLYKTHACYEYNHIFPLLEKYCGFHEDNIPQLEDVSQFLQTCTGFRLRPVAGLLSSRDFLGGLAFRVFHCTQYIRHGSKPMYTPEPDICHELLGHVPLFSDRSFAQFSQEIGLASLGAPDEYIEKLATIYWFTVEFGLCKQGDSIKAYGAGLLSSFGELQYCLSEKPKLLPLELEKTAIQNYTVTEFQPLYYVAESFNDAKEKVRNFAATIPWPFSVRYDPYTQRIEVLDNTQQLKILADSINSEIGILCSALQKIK
Experiment: Cell Based Phenylalanine Flux Assay
Conditions: A375 R408W cells; 24 hrs with compound, then 20 μM sepiapterin and 800 μM 13C9,15N-Phenylalanine for 4 hours; 13C-Tyrosine by LC-MS; average where tested multiple times
How it was run: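 Puromycin-selected A375 line, lentiviral hPAH R408W; cmpd 24 h, 37 °C, 5% CO2, 0.5% DMSO; then 20 μM sepiapterin + 800 μM 13C9,15N-Phe, 4 h; media extracted in 80% MeCN; 13C-Tyr by LC-MS; AC50 from 10-pt curves.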

| Structure (SMILES) | AC50 |
| --- | --- |
| Cc1cccc2oc([C@H]3c4nc[nH]c4CCN3C(=O)c3cnc(C(C)(C)O)o3)nc12 [Example 512, (R)-(2-(2-hydroxypropan-2-yl)oxazol-5-yl)(4-(4-methylbenzo[d]oxazol-2-yl)-6,7-dihydro-1H-imidazo[4,5-c]pyridin-5(4H)-yl)methanone] | 1000 to 5000 nM |
| O=C(c1ccnn1C(F)F)N1CCc2[nH]cnc2[C@H]1c1nc2ccc(F)c(F)c2o1 [Example 513, (S)-(4-(6,7-difluorobenzo[d]oxazol-2-yl)-6,7-dihydro-1H-imidazo[4,5-c]pyridin-5(4H)-yl)(1-(difluoromethyl)-1H-pyrazol-5-yl)methanone] | 500 to 1000 nM |
| O=C(c1ccnn1C(F)F)N1CCc2[nH]cnc2[C@@H]1c1nc2ccc(F)c(F)c2o1 [Example 514, (R)-(4-(6,7-difluorobenzo[d]oxazol-2-yl)-6,7-dihydro-1H-imidazo[4,5-c]pyridin-5(4H)-yl)(1-(difluoromethyl)-1H-pyrazol-5-yl)methanone] | 1000 to 5000 nM |
| Cn1cc(-c2nnc(C(=O)N3CCc4[nH]cnc4[C@@H]3c3nc4c(F)cc(F)cc4o3)o2)cn1 [Example 521, (R)-(4-(4,6-difluorobenzo[d]oxazol-2-yl)-6,7-dihydro-1H-imidazo[4,5-c]pyridin-5(4H)-yl)(5-(1-methyl-1H-pyrazol-4-yl)-1,3,4-oxadiazol-2-yl)methanone] | 1000 to 5000 nM |
| O=C(c1oc(-c2ccncn2)nc1C(F)F)N1CCc2[nH]cnc2[C@@H]1c1nc2cc(F)ccc2o1 [Example 525, (R)-(4-(difluoromethyl)-2-(pyrimidin-4-yl)oxazol-5-yl)(4-(5-fluorobenzo[d]oxazol-2-yl)-6,7-dihydro-1H-imidazo[4,5-c]pyridin-5(4H)-yl)methanone] | 1000 to 5000 nM |
| O=C(c1oc(-c2ccncn2)nc1C(F)F)N1CCc2[nH]cnc2[C@H]1c1nc2cc(F)ccc2o1 [Example 526, (S)-(4-(difluoromethyl)-2-(pyrimidin-4-yl)oxazol-5-yl)(4-(5-fluorobenzo[d]oxazol-2-yl)-6,7-dihydro-1H-imidazo[4,5-c]pyridin-5(4H)-yl)methanone] | ≤ 500 nM |
| O=C(c1oc(-c2cnccn2)nc1C(F)F)N1CCc2[nH]cnc2[C@H]1c1nc2cc(F)ccc2o1 [Example 527, (S)-(4-(difluoromethyl)-2-(pyrazin-2-yl)oxazol-5-yl)(4-(5-fluorobenzo[d]oxazol-2-yl)-6,7-dihydro-1H-imidazo[4,5-c]pyridin-5(4H)-yl)methanone] | ≤ 500 nM |
| O=C(c1oc(-c2cnccn2)nc1C(F)F)N1CCc2[nH]cnc2[C@@H]1c1nc2cc(F)ccc2o1 [Example 528, (R)-(4-(difluoromethyl)-2-(pyrazin-2-yl)oxazol-5-yl)(4-(5-fluorobenzo[d]oxazol-2-yl)-6,7-dihydro-1H-imidazo[4,5-c]pyridin-5(4H)-yl)methanone] | 1000 to 5000 nM |
| CC(C)(O)c1nc(C(F)F)c(C(=O)N2CCc3[nH]cnc3[C@H]2c2nc3cccc(OC(F)(F)F)c3o2)o1 [Example 529, (S)-(4-(difluoromethyl)-2-(2-hydroxypropan-2-yl)oxazol-5-yl)(4-(7-(trifluoromethoxy)benzo[d]oxazol-2-yl)-6,7-dihydro-1H-imidazo[4,5-c]pyridin-5(4H)-yl)methanone] | ≤ 500 nM |
| CC(C)(O)c1nc(C(F)F)c(C(=O)N2CCc3[nH]cnc3[C@@H]2c2nc3cccc(OC(F)(F)F)c3o2)o1 [Example 530, (R)-(4-(difluoromethyl)-2-(2-hydroxypropan-2-yl)oxazol-5-yl)(4-(7-(trifluoromethoxy)benzo[d]oxazol-2-yl)-6,7-dihydro-1H-imidazo[4,5-c]pyridin-5(4H)-yl)methanone] | 500 to 1000 nM |
| O=C(c1ocnc1C(F)F)N1CCc2[nH]cnc2[C@@H]1c1nc2cccc(OC(F)(F)F)c2o1 [Example 531, (R)-(4-(difluoromethyl)oxazol-5-yl)(4-(7-(trifluoromethoxy)benzo[d]oxazol-2-yl)-6,7-dihydro-1H-imidazo[4,5-c]pyridin-5(4H)-yl)methanone] | ≤ 500 nM |
| O=C(c1ocnc1C(F)F)N1CCc2[nH]cnc2[C@H]1c1nc2cccc(OC(F)(F)F)c2o1 [Example 532, (S)-(4-(difluoromethyl)oxazol-5-yl)(4-(7-(trifluoromethoxy)benzo[d]oxazol-2-yl)-6,7-dihydro-1H-imidazo[4,5-c]pyridin-5(4H)-yl)methanone] | ≤ 500 nM |
| CC(C)(O)c1nc(C(F)F)c(C(=O)N2CCc3[nH]cnc3[C@H]2c2nc3c(OC(F)(F)F)cccc3o2)o1 [Example 533, (S)-(4-(difluoromethyl)-2-(2-hydroxypropan-2-yl)oxazol-5-yl)(4-(4-(trifluoromethoxy)benzo[d]oxazol-2-yl)-6,7-dihydro-1H-imidazo[4,5-c]pyridin-5(4H)-yl)methanone] | ≤ 500 nM |
| CC(C)(O)c1nc(C(F)F)c(C(=O)N2CCc3[nH]cnc3[C@@H]2c2nc3c(OC(F)(F)F)cccc3o2)o1 [Example 534, (R)-(4-(difluoromethyl)-2-(2-hydroxypropan-2-yl)oxazol-5-yl)(4-(4-(trifluoromethoxy)benzo[d]oxazol-2-yl)-6,7-dihydro-1H-imidazo[4,5-c]pyridin-5(4H)-yl)methanone] | ≤ 500 nM |
| O=C(c1ocnc1C(F)F)N1CCc2[nH]cnc2[C@@H]1c1nc2c(OC(F)(F)F)cccc2o1 [Example 535, (R)-(4-(difluoromethyl)oxazol-5-yl)(4-(4-(trifluoromethoxy)benzo[d]oxazol-2-yl)-6,7-dihydro-1H-imidazo[4,5-c]pyridin-5(4H)-yl)methanone] | ≤ 500 nM |
| O=C(c1ocnc1C(F)F)N1CCc2[nH]cnc2[C@H]1c1nc2c(OC(F)(F)F)cccc2o1 [Example 536, (S)-(4-(difluoromethyl)oxazol-5-yl)(4-(4-(trifluoromethoxy)benzo[d]oxazol-2-yl)-6,7-dihydro-1H-imidazo[4,5-c]pyridin-5(4H)-yl)methanone] | ≤ 500 nM |

Now from value to molecule:

| AC50 | Structure (SMILES) |
| --- | --- |
| 500 to 1000 nM | Cn1cc(-c2nnc(C(=O)N3CCc4[nH]cnc4[C@H]3c3nc4ccc(F)c(F)c4o3)o2)cn1 [Example 515, (S)-(4-(6,7-difluorobenzo[d]oxazol-2-yl)-6,7-dihydro-1H-imidazo[4,5-c]pyridin-5(4H)-yl)(5-(1-methyl-1H-pyrazol-4-yl)-1,3,4-oxadiazol-2-yl)methanone] |
| 1000 to 5000 nM | Cn1cc(-c2nnc(C(=O)N3CCc4[nH]cnc4[C@@H]3c3nc4ccc(F)c(F)c4o3)o2)cn1 [Example 516, (R)-(4-(6,7-difluorobenzo[d]oxazol-2-yl)-6,7-dihydro-1H-imidazo[4,5-c]pyridin-5(4H)-yl)(5-(1-methyl-1H-pyrazol-4-yl)-1,3,4-oxadiazol-2-yl)methanone] |
| 1000 to 5000 nM | Cn1cc(-c2nnc(C(=O)N3CCc4[nH]cnc4[C@@H]3c3nc4c(F)ccc(F)c4o3)o2)cn1 [Example 517, (R)-(4-(4,7-difluorobenzo[d]oxazol-2-yl)-6,7-dihydro-1H-imidazo[4,5-c]pyridin-5(4H)-yl)(5-(1-methyl-1H-pyrazol-4-yl)-1,3,4-oxadiazol-2-yl)methanone] |
| ≤ 500 nM | Cn1cc(-c2nnc(C(=O)N3CCc4[nH]cnc4[C@H]3c3nc4c(F)ccc(F)c4o3)o2)cn1 [Example 518, (S)-(4-(4,7-difluorobenzo[d]oxazol-2-yl)-6,7-dihydro-1H-imidazo[4,5-c]pyridin-5(4H)-yl)(5-(1-methyl-1H-pyrazol-4-yl)-1,3,4-oxadiazol-2-yl)methanone] |
| 500 to 1000 nM | O=C(c1nnc(-c2ccccn2)o1)N1CCc2[nH]cnc2[C@@H]1c1nc2c(F)ccc(F)c2o1 [Example 519, (R)-(4-(4,7-difluorobenzo[d]oxazol-2-yl)-6,7-dihydro-1H-imidazo[4,5-c]pyridin-5(4H)-yl)(5-(pyridin-2-yl)-1,3,4-oxadiazol-2-yl)methanone] |
| ≤ 500 nM | O=C(c1nnc(-c2ccccn2)o1)N1CCc2[nH]cnc2[C@H]1c1nc2c(F)ccc(F)c2o1 [Example 520, (S)-(4-(4,7-difluorobenzo[d]oxazol-2-yl)-6,7-dihydro-1H-imidazo[4,5-c]pyridin-5(4H)-yl)(5-(pyridin-2-yl)-1,3,4-oxadiazol-2-yl)methanone] |
| 500 to 1000 nM | Cn1cc(-c2nnc(C(=O)N3CCc4[nH]cnc4[C@H]3c3nc4c(F)cc(F)cc4o3)o2)cn1 [Example 522, (S)-(4-(4,6-difluorobenzo[d]oxazol-2-yl)-6,7-dihydro-1H-imidazo[4,5-c]pyridin-5(4H)-yl)(5-(1-methyl-1H-pyrazol-4-yl)-1,3,4-oxadiazol-2-yl)methanone] |
| 500 to 1000 nM | O=C(c1nnc(-c2ccccn2)o1)N1CCc2[nH]cnc2[C@H]1c1nc2c(F)cc(F)cc2o1 [Example 523, (S)-(4-(4,6-difluorobenzo[d]oxazol-2-yl)-6,7-dihydro-1H-imidazo[4,5-c]pyridin-5(4H)-yl)(5-(pyridin-2-yl)-1,3,4-oxadiazol-2-yl)methanone] |
| 1000 to 5000 nM | O=C(c1nnc(-c2ccccn2)o1)N1CCc2[nH]cnc2[C@@H]1c1nc2c(F)cc(F)cc2o1 [Example 524, (R)-(4-(4,6-difluorobenzo[d]oxazol-2-yl)-6,7-dihydro-1H-imidazo[4,5-c]pyridin-5(4H)-yl)(5-(pyridin-2-yl)-1,3,4-oxadiazol-2-yl)methanone] |
